In data set [1] the test system is THP-1 cells. Format: cell-based, human. The conditions noted are these: 48 hours ligand treatment.
Data set [2] concerns A549 cells.
The test system of data set [3] is THP-1 cells. The format is cell-based, human.
For data set [4], the system named is A549 cells. The format is cell-based, human.
The subject of the next data set is ASC. The format is cell-based, human. To be noted: THP-1; after ORF8 transfection; 30 uM Etifoxine or 200 nM PK11195 for 24 hours.
The next data set has as its system Vero cells. The conditions noted are these: etifoxine 30 μM, counting adherent cells.
Data set [5] concerns the target T1, NLRP3 (NLR family pyrin domain containing 3) (human, UniProt Q96P20 1-1036).
T1 construct: Endogenous protein in the THP-1 cell lysate; also called NRLP3
Nature of the data set: co-immunoprecipitation from THP-1 cells, TSPO as bait, western blot. A general note: Immunoblotting shows a protein as a band on a membrane.

T1 sequence (Q96P20 whole entry, the tested form may be a part): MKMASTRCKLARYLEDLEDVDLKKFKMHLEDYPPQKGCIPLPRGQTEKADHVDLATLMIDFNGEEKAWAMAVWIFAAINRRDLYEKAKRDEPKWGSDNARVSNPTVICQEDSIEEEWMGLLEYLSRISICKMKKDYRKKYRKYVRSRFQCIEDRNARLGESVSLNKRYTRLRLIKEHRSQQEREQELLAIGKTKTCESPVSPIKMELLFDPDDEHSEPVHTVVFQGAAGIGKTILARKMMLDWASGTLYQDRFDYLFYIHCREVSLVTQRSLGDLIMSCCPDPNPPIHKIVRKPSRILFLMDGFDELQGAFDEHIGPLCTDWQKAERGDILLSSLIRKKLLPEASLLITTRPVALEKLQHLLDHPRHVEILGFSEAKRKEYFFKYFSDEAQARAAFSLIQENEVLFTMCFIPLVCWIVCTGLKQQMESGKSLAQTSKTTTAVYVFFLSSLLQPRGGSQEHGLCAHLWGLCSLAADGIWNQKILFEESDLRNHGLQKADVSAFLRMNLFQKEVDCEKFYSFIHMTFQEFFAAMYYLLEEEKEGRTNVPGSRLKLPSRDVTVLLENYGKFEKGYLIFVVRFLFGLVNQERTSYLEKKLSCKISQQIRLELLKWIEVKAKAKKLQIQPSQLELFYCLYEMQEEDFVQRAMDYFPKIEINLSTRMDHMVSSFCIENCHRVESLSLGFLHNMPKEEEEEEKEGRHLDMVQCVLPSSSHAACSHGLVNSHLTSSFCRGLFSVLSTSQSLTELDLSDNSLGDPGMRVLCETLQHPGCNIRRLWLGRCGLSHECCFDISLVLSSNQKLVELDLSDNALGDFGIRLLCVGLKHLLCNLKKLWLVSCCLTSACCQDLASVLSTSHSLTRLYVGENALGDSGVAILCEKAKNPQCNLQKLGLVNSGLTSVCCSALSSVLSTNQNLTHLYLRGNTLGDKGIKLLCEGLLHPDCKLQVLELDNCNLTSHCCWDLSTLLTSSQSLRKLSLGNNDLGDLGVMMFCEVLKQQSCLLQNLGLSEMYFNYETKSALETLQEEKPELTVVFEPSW

Regarding `CCCCCCN(CCCCCC)C(=O)Cc1c(-c2ccc(F)cc2)[nH]c2ccccc12` [FGIN, FGIN 1-27], the “PI cell death (qualitative)” value in the data set with THP-1 cells [1] is listed as “decrease”. Moreover, the “PI cell death, ORF3a induced cytotoxicity (qualitative)” value in the data set with A549 cells [2] is listed as “significant decrease”. The “cell death by LDH release (qualitative)” value with THP-1 cells [3] and in the data set on A549 cells [4] was “confer cytoprotection” throughout.

Regarding `CCC(C)N(C)C(=O)c1cc2ccccc2c(-c2ccccc2Cl)n1` (stereo not shown) [PK11195], the “PI cell death (qualitative)” value with THP-1 cells [1] is recorded as “decrease”. Further, the “ASC protein levels co-immunoprecipitated with TSPO (qualitative)” value in the data set with ASC is on record as “decrease in protein levels”. The “PI cell death, ORF3a induced cytotoxicity (qualitative)” value in the data set with A549 cells [2] is on record as “significant decrease”. Further, the “cell death by LDH release (qualitative)” value in the data set on THP-1 cells [3] and with A549 cells [4] was “confer cytoprotection” in each case.

With `CCN(Cc1ccccc1)C(=O)Cn1c(=O)n(C)c2cnc(-c3ccccc3)nc21` [XBD173], the “PI cell death (qualitative)” value in the data set with THP-1 cells [1] is “decrease”. Also, in the data set with A549 cells [2], the “PI cell death, ORF3a induced cytotoxicity (qualitative)” value is listed as “significant decrease”. For the same molecule, the “cell death by LDH release (qualitative)” value in the data set on THP-1 cells [3] and in the data set with A549 cells [4] was “confer cytoprotection” throughout.

Take `CCNC1=Nc2ccc(Cl)cc2C(C)(c2ccccc2)O1` (stereo not shown) [etifoxine]: the “ASC protein levels co-immunoprecipitated with TSPO (qualitative)” value in the data set with ASC was “decrease in protein levels”. In the data set on A549 cells [2], the “PI cell death, ORF3a induced cytotoxicity (qualitative)” value was “significant decrease”. Also, the “cell death by LDH release (qualitative)” value in the data set on THP-1 cells [3] and with A549 cells [4] was “confer cytoprotection” in each case. Moreover, the “reduction of cell death” value in the data set with Vero cells is on record as “approximately 50%”.

B1: TSPO (the 18 kDa translocator protein) (other)
chain: APPWVPAMGFTLAPSLGCFVGSRFVHGEGLRWYAGLQKPSWHPPHWVLGPVWGTLYSAMGYGSYLVWKELGGFTEKAVVPLGLYTGQLALNWAWPPIFFGARQMGWALVDLLLVSGAAAATTVAWYQVSPLAARLLYPYLAWLAFTTTLNYCVWRDNHGWRGGRRLPE
notes: also called peripheral benzodiazepine receptor
For the molecule B1, the binding result in data set [5] is given as “no binding”.

The values are drawn from patent US20250019701A1, “TREATMENT FOR INFLAMMATORY DISEASE” (priority 2021, published 2025).
